Results taken from patent publication US12251422B2, “Compositions and methods for treating neurological and other disorders” (Rush University Medical Center, priority 2018, dated 2025).

Key:
cTLR2 protein = target: T1, cTLR2 protein (Mus musculus, UniProt Q9QUN7); assay: Thermal shift assay of cTLR2 with TIDM peptides; format: binding; details: 10 μM peptide
T1 construct: The cTLR2 (640-784 amino acids) tagged with c-myc was cloned in lenti vector; made in house; host or cells: HEK293 cells (lentiviral expression)
Procedure: Thermal shift assays were performed in an Applied Biosystems 7500 standard real-time thermal cycler machine as described before (52, 53). For each reaction, purified protein (0.5 μg to 1 μg) was added to 18 μL of thermal shift buffer provided with the kit, and 1-2 μL of dye. Reaction was set 96 well PCR plate in the dark and then placed in the thermal cycler machine using the following two-stage program [(25° C. for 2 mins) 1 cycle; ([…]) 70 cycles; auto increment 1° C. for both stages]. The filter was set at ROX with no quencher filter and no passive filter.

A53T α-syn Tg mice = assay: α-Synucleinopathy in A53T α-syn Tg mice; format: in vivo, mouse; details: 0.1 mg/kg body wt/d intranasal, 30 d
Procedure: (§1) FIG. 28 (A-B). Intranasal wtTIDM peptide attenuates microglial inflammation in the nigra of A53T α-syn Tg mice. A53T mice (male; 9-month old; n=6 per group) were treated with TIDM peptides via intranasal route at a dose of 0.1 mg/kg body wt/d for 30 d followed by double-label immunofluorescence analysis of nigral sections for Iba-1 and inducible nitric oxide synthase (iNOS) (A). Magnified images of selected area are shown at the bottom row. The iNOS (+ve) cells were counted in two sections of each of six mice per group and presented as cells/mm2.
as §1, with “29” for “28”, “stimulates” for “attenuates”, “expression of arginase-1” for “inflammation”, “arginase-1 (ARG1)” for “inducible nitric oxide synthase (iNOS)”, “ARG-1” for “iNOS”
FIG. 30 (A-C). Intranasal wtTIDM peptide reduces α-synucleinopathy in the nigra of A53T α-syn Tg mice. A53T mice (male; 9-month old; n=6 per group) were treated with TIDM peptides via intranasal route at a dose of 0.1 mg/kg body wt/d for 30 d followed by Western blot analysis of nigral extracts for α-syn (A). Bands were scanned and presented as relative to A53T control (B, monomeric α-syn; C, oligomeric α-syn). Results are mean+SEM of six mice per group.
(§2) FIG. 31 (A-D). Intranasal wtTIDM peptide reduces α-synucleinopathy in the nigra of A53T α-syn Tg mice. A53T mice (male; 9-month old; n=6 per group) were treated with TIDM peptides via intranasal route at a dose of 0.1 mg/kg body wt/d for 30 d followed by double-label immunofluorescence analysis of nigral sections for TH and α-syn (mjfr1 Ab) (A). Magnified images of selected area are shown at the leftmost column. Total area (B), average size (C) and integrated density (D) of α-syn-positive cell bodies were calculated. Five cells from each of two nigral sections of six mice per group were analyzed.
as §2, with “FIG. 32 (A-B).” for “FIG. 31 (A-D).”, “for microglial marker Iba-1” for “for TH”, “column. Mean fluorescence intensity (MFI)” for “column. Total area (B), average size (C) and integrated density (D)”, “of (α-syn+Iba-1)-positive” for “of α-syn-positive”, “bodies was” for “bodies were”
FIG. 33 (A-E). Intranasal wtTIDM peptide improve locomotor activities of A53T α-syn Tg mice. A53T mice (male; 9-month old; n=6 per group) were treated with TIDM peptides via intranasal route at a dose of 0.1 mg/kg body wt/d for 30 d followed by monitoring locomotor activities by the Ethovision XT 13.0 Open Field Activity System (Noldus) (A, track plot; B, moving cumulative duration; C, distance; D, velocity; E, rotorod). Results are mean+SEM of six mice per group.

mice with CIA = assay: Collagen-induced arthritis (CIA) in DBA/1J mice; format: in vivo, mouse; details: 1 mg/kg body wt/d i.p. from 29 dpi
Source text: FIG. 7 (A-V). The wtTIDM, but not mTIDM, peptide protects mice from experimental allergic encephalomyelitis (EAE) and collagen-induced arthritis (CIA). […] Mice (n=6 per group in two independent experiments) were scored daily. […] On 22 dpi, general motor activities were monitored using the Ethovision XT 13.0 Open Field Activity System (Noldus) (B, heat-map images representing overall motor activities; C, distance travelled; D, rearing; E, velocity; F, acceleration) and rotorod (G). Foot print analysis (H, stride length; I, print length; J, sway length; K, toe spread) was also performed, L) CIA was induced in male DBA/1J mice by bovine type II collagen immunization and from 29 dpi, mice were treated with wtTIDM and mTIDM peptides (1 mg/kg body wt/d) via i.p. injection. Mice (n=6 per group in two independent experiments) were scored daily. […] On 60 dpi, general motor activities were monitored by Ethovision System (M, heat-map images representing overall motor activities; N, distance travelled; O, rearing; P, velocity), rotorod (Q) and grip strength (R). Foot print analysis (S, stride length; T, print length; U, sway length; V, toe spread) was also performed. Six mice (n=6 per group) were used in two independent experiments. ap<0.001 & bp<0.05 vs control; cp<0.001 & dp<0.05 vs EAE or CIA by two-sample t-tests.
FIG. 26 (A-D). Footprint analysis of mice with CIA after treatment with wtTIDM and mTIDM peptides. On the walking track, we applied white paper strips and obtained the footprints of mice of different groups (A, control; B, CIA; C, CIA+wtTIDM; D, CIA+mTIDM) on paper using black ink. A total of 30-40 steps for each group were determined. Four different footprint measurements (SL, PL, SWL, and TS) were calculated in centimeters from the recorded prints of mice. Six mice (n=6 per group) were used in two independent experiments.
Male DBA/1J mice (8-9 week old) were immunized intradermally at the base of the tail with 100 μg of bovine type II collagen emulsified in […] Freund's Adjuvant and M. tuberculosis H37RA. […]

T1 sequence (Q9QUN7 640-784): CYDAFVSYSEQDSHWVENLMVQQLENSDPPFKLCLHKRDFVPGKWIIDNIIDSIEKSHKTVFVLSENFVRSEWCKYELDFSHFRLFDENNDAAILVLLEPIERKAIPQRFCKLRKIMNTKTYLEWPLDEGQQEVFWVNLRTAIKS

Row | Compound | shift (ΔTm) of melting temperature of cTLR2 (cTLR2 protein) | protective effect in A53T mice (all readouts) (A53T α-syn Tg mice) | clinical symptoms of CIA (mice with CIA) | footprint behavior in CIA mice (mice with CIA; 60 dpi) | locomotor activities in CIA mice (mice with CIA; 60 dpi) | arginase-1 in the nigra (A53T α-syn Tg mice) | locomotor activities of A53T mice (A53T α-syn Tg mice) | microglial expression of iNOS in the nigra (A53T α-syn Tg mice) | microglial α-syn in the nigra (A53T α-syn Tg mice) | oligomeric and monomeric α-syn (A53T α-syn Tg mice) | α-syn inclusion bodies within tyrosine hydroxylase-positive dopaminergic neurons (A53T α-syn Tg mice)
1 | CC[C@H](C)[C@H](NC(=O)[C@H](CCCCN)NC(=O)[C@@H](NC(=O)[C@H](CCC(N)=O)NC(=O)[C@H](CCCNC(=N)N)NC(=O)[C@@H](N)CC(=O)O)[C@@H](C)CC)C(=O)N[C@@H](Cc1c[nH]c2ccccc12)C(=O)N[C@@H](Cc1ccccc1)C(=O)N[C@@H](CCC(N)=O)C(=O)N[C@@H](CC(N)=O)C(=O)N[C@@H](CCCNC(=N)N)C(=O)N[C@@H](CCCNC(=N)N)C(=O)N[C@@H](CCSC)C(=O)N[C@@H](CCCCN)C(=O)N[C@@H](Cc1c[nH]c2ccccc12)C(=O)N[C@@H](CCCCN)C(=O)N[C@@H](CCCCN)C(=O)N1CCC[C@H]1C(=O)NCC(=O)N[C@@H](Cc1c[nH]c2ccccc12)C(=O)N[C@@H](Cc1c[nH]cn1)C(=O)N[C@@H](CCC(N)=O)C(=O)N[C@@H](CC(=O)O)C(=O)O [mTIDM, drqikiwfqnrrmkwkkPGWHQD] | 0.87 °C | did not exhibit any such protective effect | – | – | – | – | – | – | – | – | –
2 | CC[C@H](C)[C@H](NC(=O)[C@H](CCCCN)NC(=O)[C@@H](NC(=O)[C@H](CCC(N)=O)NC(=O)[C@H](CCCNC(=N)N)NC(=O)[C@@H](N)CC(=O)O)[C@@H](C)CC)C(=O)N[C@@H](Cc1c[nH]c2ccccc12)C(=O)N[C@@H](Cc1ccccc1)C(=O)N[C@@H](CCC(N)=O)C(=O)N[C@@H](CC(N)=O)C(=O)N[C@@H](CCCNC(=N)N)C(=O)N[C@@H](CCCNC(=N)N)C(=O)N[C@@H](CCSC)C(=O)N[C@@H](CCCCN)C(=O)N[C@@H](Cc1c[nH]c2ccccc12)C(=O)N[C@@H](CCCCN)C(=O)N[C@@H](CCCCN)C(=O)N1CCC[C@H]1C(=O)NCC(=O)N[C@@H](C)C(=O)N[C@@H](Cc1c[nH]cn1)C(=O)N[C@@H](CCC(N)=O)C(=O)N[C@@H](CCCCN)C(=O)O [wtTIDM, drqikiwfqnrrmkwkkPGAHQK] | 4.96 °C | – | decreased | improved | enhanced | increase | improved | reduced | decrease | reduction | suppression
